Experimental data reported in patent US7431936B2, “Proteins involved in cytoadhesion of plasmodium falciparum ring-stage-infected erythrocytes, antibodies which bind to the proteins, and methods for detecting infection, stage of infection and vaccines for protecting against infection” (Institut Pasteur, priority 2000, dated 2008).

Columns and labels:
[1] = system: ring-stage IE^CSA cytoadhesion to SBEC 1D; assay: Cytoadhesion inhibition assay of IE^CSA on SBEC 1D; assay type: cell-based, P. falciparum; settings: for sensitivity of ring-stage IE^CSA cytoadhesion to inhibitor: 0.1 mg.ml of CSA, or prior treating of target cells with 1 U/ml Case ABC, until the 16th hour after invasion (FIG. 2A); for time after invasion at which inhibition was maximal: CSA and Case ABC tested every 4 hours throughout the cycle (FIG. 2A); for inhibitory effect on ring-stage IE binding to SBEC 1D: ring-stage PA^CSA IE 8 hours post-invasion, glycosaminoglycan present or target cells enzyme-treated (FIG. 2B), thrombospondin data not shown
Protocol: Gelatin-enriched preparations of mature-stage IE were resuspended at a concentration of 5×10^6 IE/ml in cytoadhesion medium at pH 6.8. Cytoadhesion microassays were then performed on 12-well IFA slides (Institut Pasteur, Paris) as previously desribed^15.
Ring-stage cytoadhesion assays were performed with endothelial cells as described above and with placental cryosections as previously described^11, with 1 to 10% parasitaemia (a 1×10^7 IE/ml suspension).
For cytoadhesion inhibition assays, the IE were incubated with SBEC in the presence of 2.5 μg/ml thrombospondin, 0.1 mg/ml soluble CSA, dermatan sulphate (CSB), chondroitin-6-sulphate (CSC), keratin sulphate (Ker), byaluronic acid (HA), heparin (Hep) (Fluka, France), or with SBEC previously incubated for 1 hour at 37° C. with 1 U/ml Case (Fluka, France), 1 to 10 U/ml heparinase III (Hepase III (Sigma, France) or 5 μg/ml anti-CD36 FA6-152 Mab (gift from Dr. Edelman). Inhibition assays were also carried out in the presence of sera obtained from Senegalese and Cameroonian patients living in areas of endemic malaria. The sera were obtained from primigravida and multigravida women, an adult and a child, absorbed onto O^+ human blood and SBEC ID, and tested at a dilution of 1/20. The results were compared to those for cytoadhesion in the presence of a 1/20 dilution of a pool of control sera from volunteers who had never contacted malaria.

[2] = system: ring-stage PA^CSA IE cytoadhesion to SBEC ID; assay: Protease sensitivity of ring-stage IE cytoadhesion; assay type: cell-based, P. falciparum; settings: protease concentration of 100 μg/ml (FIG. 3C)
Protocol: The protease sensitivity of ring-stage IE cytoadhesion was analyzed using 5 μl of packed PA^CSA IE (8 hours post-invasion). IE were incubated with 10 or 100 μg/ml of trypsin TPCK (Signa) or 100 µg/ml of -chymotrypsin TLCK (Sigma) for 30 minutes at 37° C. The digestion was topped by adding culture medium containing 10% human plasma. The cells were then washed in cytoadhesion medium and allowed to cytoadhere to SBEC ID, as previously described, using untreated PA^CSA as a control.

chondroitin-sulphate A [CSA]
sensitivity of ring-stage IE^CSA cytoadhesion to inhibitor [1]: insensitive | time after invasion at which inhibition was maximal [1]: 24 h

chondroitinase ABC [Case]
sensitivity of ring-stage IE^CSA cytoadhesion to inhibitor [1]: insensitive | time after invasion at which inhibition was maximal [1]: 24 h | inhibitory effect on ring-stage IE binding to SBEC 1D [1]: no significant inhibitory activity

dermatan-sulphate [CSB]
inhibitory effect on ring-stage IE binding to SBEC 1D [1]: not specific

heparin
inhibition of ring-stage cytoadhesion ([1]; Heparin (100 m/ml) and heparinase, SBEC 1D (FIG. 2B)): about 50%

-chymotrypsin
inhibition of ring-stage IE adhesion after protease treatment of IE [2]: substantially inhibited

Thrombospondin: mature-stage IE adhesion receptor protein tested at 2.5 μg/ml
inhibitory effect on ring-stage IE binding to SBEC 1D [1]: no effect

Hyaluronic acid
inhibitory effect on ring-stage IE binding to SBEC 1D [1]: no activity

hyaluronate lyase
inhibitory effect on ring-stage IE binding to SBEC 1D [1]: low level of inhibitory activity

B1: trypsin: protease used to treat ring-stage IE (protein, UniProt P00760 24-246, looked up)
Serine protease 1: IVGGYTCGANTVPYQVSLNSGYHFCGGSLINSQWVVSAAHCYKSGIQVRLGEDNINVVEGNEQFISASKSIVHPSYNSNTLNNDIMLIKLKSAASLNSRVASISLPTSCASAGTQCLISGWGNTKSSGTSYPDVLKCLKAPILSDSSCKSAYPGQITSNMFCAGYLEGGKDSCQGDSGGPVVCSGKLQGIVSWGSGCAQKNKPGVYTKVCNYVSWIKQTIASN
modifications: TPCK-treated
notes: protease used to treat ring-stage IE
inhibition of ring-stage IE adhesion after protease treatment of IE [2]: substantially inhibited
